In PubChem BioAssay (NCI):
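Exposure lasted 48 hours, with cells grown in 96-well plates and compounds tested at five concentrations. Abbreviation: GI50, concentration required for 50% inhibition of growth. TGI: concentration producing complete growth inhibition.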

What was measured:
Test in all cases: growth of human tumour cells (NCI), 48 h
SK-MEL-2 melanoma = tested on: SK-MEL-2 melanoma
UO-31 renal = tested on: UO-31 renal
SK-MEL-5 melanoma = tested on: SK-MEL-5 melanoma
NCI/ADR-RES ovarian = tested on: NCI/ADR-RES ovarian
UACC-257 melanoma = tested on: UACC-257 melanoma
SK-OV-3 ovarian = tested on: SK-OV-3 ovarian
MCF7 breast = tested on: MCF7 breast
HT29 colon = tested on: HT29 colon
NCI-H226 lung = tested on: NCI-H226 lung
CAKI-1 renal = tested on: CAKI-1 renal
MDA-MB-435 = tested on: MDA-MB-435
M14 melanoma = tested on: M14 melanoma
K-562 leukemia = tested on: K-562 leukemia
A498 renal = tested on: A498 renal
EKVX NSCLC = tested on: EKVX NSCLC
RXF 393 renal = tested on: RXF 393 renal
OVCAR-4 ovarian = tested on: OVCAR-4 ovarian
KM12 colon = tested on: KM12 colon
OVCAR-8 ovarian = tested on: OVCAR-8 ovarian
TK-10 renal = tested on: TK-10 renal
COLO 205 colon = tested on: COLO 205 colon
T-47D breast = tested on: T-47D breast
HCC-2998 colon = tested on: HCC-2998 colon
SW-620 colon = tested on: SW-620 colon
MALME-3M melanoma = tested on: MALME-3M melanoma
SF-539 CNS = tested on: SF-539 CNS
HCT-116 colon = tested on: HCT-116 colon
HCT-15 colon = tested on: HCT-15 colon
786-0 renal = tested on: 786-0 renal
ACHN renal = tested on: ACHN renal
SR leukemia = tested on: SR leukemia
RPMI-8226 leukemia = tested on: RPMI-8226 leukemia
HOP-92 NSCLC = tested on: HOP-92 NSCLC
MDA-MB-468 breast = tested on: MDA-MB-468 breast
PC-3 prostate = tested on: PC-3 prostate
U251 CNS = tested on: U251 CNS
SK-MEL-28 melanoma = tested on: SK-MEL-28 melanoma
SF-295 CNS = tested on: SF-295 CNS
OVCAR-3 ovarian = tested on: OVCAR-3 ovarian
DU-145 prostate = tested on: DU-145 prostate
BT-549 breast = tested on: BT-549 breast
IGROV1 ovarian = tested on: IGROV1 ovarian
SNB-19 CNS = tested on: SNB-19 CNS
HOP-62 NSCLC = tested on: HOP-62 NSCLC
SN12C renal = tested on: SN12C renal
SNB-75 CNS = tested on: SNB-75 CNS
MDA-MB-231 breast = tested on: MDA-MB-231 breast
A549 NSCLC = tested on: A549 NSCLC
SF-268 CNS = tested on: SF-268 CNS
OVCAR-5 ovarian = tested on: OVCAR-5 ovarian
NCI-H522 lung = tested on: NCI-H522 lung
NCI-H23 lung = tested on: NCI-H23 lung
HL-60(TB) leukemia = tested on: HL-60(TB) leukemia
MOLT-4 leukemia = tested on: MOLT-4 leukemia
CCRF-CEM leukemia = tested on: CCRF-CEM leukemia
LOX IMVI melanoma = tested on: LOX IMVI melanoma
NCI-H460 lung = tested on: NCI-H460 lung
UACC-62 melanoma = tested on: UACC-62 melanoma
HS 578T breast = tested on: HS 578T breast

With `CS(=O)(=O)Nc1cncc(-c2ccc3ncnc(NCc4ccccc4)c3c2)c1` the GI50 (SK-MEL-2 melanoma) was 5.75 µM, the TGI (SK-MEL-2 melanoma) was 19.3 µM and the GI50 (UO-31 renal) was 12.1 µM. It also gave a TGI (UO-31 renal) of 36.5 µM, a GI50 (SK-MEL-5 melanoma) of 12.9 µM and a TGI (SK-MEL-5 melanoma) of 25.6 µM. For the same compound, the GI50 (NCI/ADR-RES ovarian) was > 100 µM, the TGI (NCI/ADR-RES ovarian) was > 100 µM and the GI50 (UACC-257 melanoma) was 13.8 µM. The TGI (UACC-257 melanoma) was 51.6 µM, the GI50 (SK-OV-3 ovarian) was 15.5 µM and the TGI (SK-OV-3 ovarian) was 34.9 µM. It also gave a GI50 (MCF7 breast) of 4.56 µM, a TGI (MCF7 breast) of 24.6 µM and a GI50 (HT29 colon) of 14.4 µM. It also gave a TGI (HT29 colon) of 30 µM, a GI50 (NCI-H226 lung) of 14 µM and a TGI (NCI-H226 lung) of 37.1 µM. For the same compound, the GI50 (CAKI-1 renal) was 12.8 µM, the TGI (CAKI-1 renal) was 30.2 µM and the GI50 (MDA-MB-435) was 10.8 µM. It also gave a TGI (MDA-MB-435) of 27.4 µM, a GI50 (M14 melanoma) of 14.6 µM and a TGI (M14 melanoma) of 45.7 µM. For the same compound, the GI50 (K-562 leukemia) was 18.7 µM, the TGI (K-562 leukemia) was > 100 µM and the GI50 (A498 renal) was 13.1 µM. It also gave a TGI (A498 renal) of 36.1 µM, a GI50 (EKVX NSCLC) of 12.9 µM and a TGI (EKVX NSCLC) of 31.4 µM. It also gave a GI50 (RXF 393 renal) of 10.8 µM, a TGI (RXF 393 renal) of 26.6 µM and a GI50 (OVCAR-4 ovarian) of 12.2 µM. The TGI (OVCAR-4 ovarian) was 50.2 µM, the GI50 (KM12 colon) was 14.2 µM and the TGI (KM12 colon) was 30 µM. It also gave a GI50 (OVCAR-8 ovarian) of 19.1 µM, a TGI (OVCAR-8 ovarian) of 79 µM and a GI50 (TK-10 renal) of 10.7 µM. For the same compound, the TGI (TK-10 renal) was 29.9 µM, the GI50 (COLO 205 colon) was 13.2 µM and the TGI (COLO 205 colon) was 26.6 µM. For the same compound, the GI50 (T-47D breast) was 2.85 µM, the TGI (T-47D breast) was 12.7 µM and the GI50 (HCC-2998 colon) was 11.5 µM. It also gave a TGI (HCC-2998 colon) of 23.8 µM, a GI50 (SW-620 colon) of 17.1 µM and a TGI (SW-620 colon) of 41.6 µM. It also gave a GI50 (MALME-3M melanoma) of 4.17 µM, a TGI (MALME-3M melanoma) of 21.5 µM and a GI50 (SF-539 CNS) of 11.9 µM. The TGI (SF-539 CNS) was 27.6 µM, the GI50 (HCT-116 colon) was 13.9 µM and the TGI (HCT-116 colon) was 29.1 µM. The GI50 (HCT-15 colon) was 23.3 µM, the TGI (HCT-15 colon) was 98.3 µM and the GI50 (786-0 renal) was 15 µM. The TGI (786-0 renal) was 37.3 µM, the GI50 (ACHN renal) was 20.2 µM and the TGI (ACHN renal) was > 100 µM. It also gave a GI50 (SR leukemia) of 8.84 µM, a TGI (SR leukemia) of 40.3 µM and a GI50 (RPMI-8226 leukemia) of 15.1 µM. For the same compound, the TGI (RPMI-8226 leukemia) was 38 µM, the GI50 (HOP-92 NSCLC) was 3.92 µM and the TGI (HOP-92 NSCLC) was 20.1 µM. It also gave a GI50 (MDA-MB-468 breast) of 2.14 µM, a TGI (MDA-MB-468 breast) of 8.25 µM and a GI50 (PC-3 prostate) of 14.6 µM. It also gave a TGI (PC-3 prostate) of 38.3 µM, a GI50 (U251 CNS) of 7.54 µM and a TGI (U251 CNS) of 41 µM. It also gave a GI50 (SK-MEL-28 melanoma) of 11 µM, a TGI (SK-MEL-28 melanoma) of 38.3 µM and a GI50 (SF-295 CNS) of 16.4 µM. It also gave a TGI (SF-295 CNS) of 39.4 µM, a GI50 (OVCAR-3 ovarian) of 5.93 µM and a TGI (OVCAR-3 ovarian) of 21.6 µM. The GI50 (DU-145 prostate) was 22.2 µM, the TGI (DU-145 prostate) was > 100 µM and the GI50 (BT-549 breast) was 3.63 µM. It also gave a TGI (BT-549 breast) of 21.5 µM, a GI50 (IGROV1 ovarian) of 7.73 µM and a TGI (IGROV1 ovarian) of 22.9 µM. It also gave a GI50 (SNB-19 CNS) of 9.74 µM, a TGI (SNB-19 CNS) of 26.2 µM and a GI50 (HOP-62 NSCLC) of 12.2 µM. For the same compound, the TGI (HOP-62 NSCLC) was 35 µM, the GI50 (SN12C renal) was 12.4 µM and the TGI (SN12C renal) was 39.1 µM. It also gave a GI50 (SNB-75 CNS) of 6.7 µM, a TGI (SNB-75 CNS) of 32.8 µM and a GI50 (MDA-MB-231 breast) of 12.3 µM. For the same compound, the TGI (MDA-MB-231 breast) was 27 µM, the GI50 (A549 NSCLC) was 15.5 µM and the TGI (A549 NSCLC) was 31.7 µM. It also gave a GI50 (SF-268 CNS) of 10.5 µM, a TGI (SF-268 CNS) of 36.7 µM and a GI50 (OVCAR-5 ovarian) of 12.3 µM. It also gave a TGI (OVCAR-5 ovarian) of 32.9 µM, a GI50 (NCI-H522 lung) of 4.21 µM and a TGI (NCI-H522 lung) of 18.9 µM. The GI50 (NCI-H23 lung) was 12.7 µM, the TGI (NCI-H23 lung) was 28.1 µM and the GI50 (HL-60(TB) leukemia) was 10.3 µM. It also gave a TGI (HL-60(TB) leukemia) of 40.9 µM, a GI50 (MOLT-4 leukemia) of 5.53 µM and a TGI (MOLT-4 leukemia) of 74 µM. For the same compound, the GI50 (CCRF-CEM leukemia) was 4.58 µM, the TGI (CCRF-CEM leukemia) was 33.3 µM and the GI50 (LOX IMVI melanoma) was 11.9 µM. It also gave a TGI (LOX IMVI melanoma) of 24.2 µM, a GI50 (NCI-H460 lung) of 25.6 µM and a TGI (NCI-H460 lung) of 94.3 µM. The GI50 (UACC-62 melanoma) was 7.19 µM, the TGI (UACC-62 melanoma) was 20.4 µM and the GI50 (HS 578T breast) was 3.36 µM. It also gave a TGI (HS 578T breast) of 20.5 µM.
